According to article PMC6105804, “In Vitro and In Vivo Evaluation of APX001A/APX001 and Other Gwt1 Inhibitors against Cryptococcus” (Antimicrobial Agents and Chemotherapy, 2018):
Values joined by “and” are separate entries in the source; they are usually repeats but may differ in a detail not shown here. Equal entries are not always repeated.

How the values were obtained:
[1] = Acute toxicity and survival observed in the CM model with ABT; format: in vivo, mouse; conditions: n = 5 mice/cohort; 7 days i.p. + ABT
Method: (§1) ABT at 100 mg/kg was administered orally to male CD-1 mice at 2 h prior to each APX compound dose. Mice were injected with 6.9 × 10^4 CFU of C. neoformans strain H99 per mouse via the lateral tail vein at time zero. Treatment with the APX compound was initiated at about 1 h postinfection by i.p. administration and continued for 7 days, with 100-mg/kg ABT being administered orally 2 h prior to each APX compound dose. […] Fungal burden data were log10 transformed and evaluated using Kruskal-Wallis tests with Dunn's multiple-comparison test for post hoc analysis (Prism software, v5; GraphPad Software, Inc., San Diego, CA). A P value of ≤0.05 was considered statistically significant (*, P ≤ 0.05; **, P ≤ 0.01). The 95% confidence interval (CI) is presented.
(§2) C. neoformans strain H99 was grown in yeast extract-peptone-dextrose broth at 30°C on a shaker (220 rpm) for 24 h, centrifuged (1,980 relative centrifugal force), and washed twice in phosphate-buffered saline (PBS), resuspended in PBS, and quantified by hemacytometric count. Male CD-1 mice were infected with ∼5 × 10^4 CFU per mouse via lateral tail vein injection of 100 μl. Mice were weighed, and treatment was begun within 1 h after infection. Treatments were administered daily for 7 days. Mice were weighed daily and observed for acute and chronic adverse symptoms. Mice were sacrificed on day 8, and the brain and left lung were homogenized and cultured for quantitative determination of the tissue burden (number of CFU per gram of tissue). Tissues were homogenized for 25 s in 1 ml phosphate-buffered saline using two 6.5-mm steel beads and a Mini-Beadbeater 16 apparatus (Biospec Products, Inc., Bartlesville, OK) and serially diluted in 10-fold steps. Aliquots (100 μl) of homogenate were plated and incubated for 3 to 7 days at 37°C. Fungal burden data were log10 transformed and evaluated using Kruskal-Wallis tests with Dunn's multiple-comparison test for post hoc analysis (Prism software, v5; GraphPad Software, Inc., San Diego, CA). A P value of ≤0.05 was considered statistically significant.

[2] = set-up: method as in ref 11, 12 = [11]; 11. Hodges MR , Ople E , Shaw KJ , Mansbach RS , van Marle S , van Hoogdalem E , Kramer W , Wedel P 2017 Phase 1 study to assess safety, tolerability and pharmacokinetics of single and multiple oral d || [12]; 12. Hodges MR , Ople E , Shaw KJ , Mansbach RS , van Marle S , van Hoogdalem E , Wedel P , Kramer W 2017 First-in-human study to assess safety, tolerability and pharmacokinetics of APX001 administered; conditions: cited from earlier work
[3] = test system: C. neoformans strain H99; experiment: Murine cryptococcal meningitis model with ABT pretreatment (preliminary experiment); format: in vivo, Cryptococcus neoformans
Method: In a preliminary experiment, the efficacies of APX001, APX2096, and APX2097 were evaluated in the disseminated model of CM (n = 5 mice/cohort). ABT at 100 mg/kg was administered orally to male CD-1 mice 2 h prior to APX compound administration. Mice were injected with 6.9 × 10^4 CFU of C. neoformans strain H99 per mouse via the lateral tail vein at time zero. Treatment with each prodrug was initiated at about 1 h postinfection by i.p. administration and continued daily for 7 days, with 100-mg/kg ABT being administered orally 2 h prior to each APX compound dose.
as §1, §2

[4] = test system: C. neoformans strain H99; experiment: Murine model of cryptococcal meningitis, APX001 alone and with FLC (no ABT); format: in vivo, Cryptococcus neoformans
Method: The efficacies of APX001 and FLC were evaluated in a well-established mouse CM model ([34]). Since Cryptococcus infections can be hematogenously disseminated to other organs, the numbers of CFU in both lung and brain tissue were evaluated. Male CD-1 mice were infected with 5.9 × 10^4 CFU of C. neoformans strain H99 via lateral tail vein injection. Mice were assigned to four groups (n = 10), consisting of (i) treatment with APX001, (ii) treatment with APX001 plus FLC, (iii) treatment with FLC, or (iv) no treatment as a control. Treatment was initiated within 1 h after infection. APX001 was administered by oral gavage at a dose of 390 mg/kg thrice daily (TID), with each dose being administered roughly 8 h apart. […] FLC (2 mg/ml; Sagent Pharmaceuticals, Schaumburg, IL) was administered at a dose of 80 mg/kg/day intraperitoneally (i.p.).
Brain and lung burdens in mice were measured at 7 days postinfection with C. neoformans H99. Male CD-1 mice were infected with 5.9 × 10^4 CFU of C. neoformans strain H99 via the lateral tail vein. Treatment was initiated at about 1 h postinfection and continued for 7 days. APX001 was administered by oral gavage at a dose of 390 mg/kg thrice daily, with each dose being administered roughly 8 h apart. FLC (2 mg/ml; Sagent Pharmaceuticals, Schaumburg, IL) was administered at a dose of 80 mg/kg/day i.p. once daily. Fungal burden data were log10 transformed and evaluated using Kruskal-Wallis tests with Dunn's multiple-comparison test for post hoc analysis (Prism software, v5; GraphPad Software, Inc., San Diego, CA). A P value of ≤0.05 was considered statistically significant (*, P ≤ 0.05; **, P ≤ 0.01; ***, P ≤ 0.001). The 95% confidence interval (CI) is presented.
as §2

[5] = Source text: For pharmacokinetic and efficacy studies, the prodrugs APX001, APX2096, APX2097, and APX2104 (Amplyx Pharmaceuticals) were used. […] The prodrugs APX2096, APX2097, and APX2104 were formulated similarly to enable oral and i.p. dosing of compounds for pharmacokinetic and efficacy studies.
[6] = test system: C. albicans; set-up: method as in ref 23 = [23]; 23. Zhao Y , Lee M , Lee A , Paderu P , Park S , Perlin DS 2018 APX001 is effective against echinocandin and multi-drug resistant Candida isolates . Abstr 28th ECCMID , Madrid, Spain .; conditions: after ABT administration, after 48 h; cited from earlier work
[7] = 80 mg/kg in the presence of ABT
[8] = 85 mg/kg QD i.p. + ABT 100 mg/kg p.o., 7 days
[9] = APX001 390 mg/kg TID oral plus FLC 80 mg/kg/day i.p., 7 days
[10] = monotherapy 7 days, APX001 390 mg/kg TID oral gavage, FLC 80 mg/kg/day i.p., male CD-1 mice

For `Nc1c(-c2cc(Cc3ccc(COc4ccccn4)cc3)no2)ccc[n+]1COP(=O)([O-])O` [APX001], the “final numbers of surviving mice” value [1] is listed as 5, the bioavailability ([2]; phase 1 clinical trials) is listed as greater than 90% and the half-life in humans ([2]; phase 1 studies in healthy volunteers) is listed as 60 h. The “reduction in lung fungal burden” value ([3]; 34 mg/kg QD i.p. + ABT 100 mg/kg p.o., 7 days) was “neither the 34-mg/kg nor the 85-mg/kg dose of APX001 achieved a statistically significant reduction”, the “reduction in brain fungal burden” value [3, 7] was 0.85 log10 CFU/g and the “reduction in lung fungal burden” value [3, 7] was 0.9 log10 CFU/g. For the same molecule, the “reduction in brain fungal burden” value [3, 8] was 0.85 log10 CFU/g, the “reduction in lung fungal burden” value [3, 8] was “neither the 34-mg/kg nor the 85-mg/kg dose of APX001 achieved a statistically significant reduction” and the “reduction in brain fungal burden vs untreated control, combination of APX001 and FLC” value [4, 9] was 3.52 log10 CFU/g and 3.51 log10 CFU/g. The “reduction in lung fungal burden vs untreated control, combined therapy” value [4, 9] was 1.84 log10 CFU/g, the “reduction in brain fungal burden vs untreated control” value [4, 10] was 0.78 log10 CFU/g and the “reduction in lung fungal burden vs untreated control” value [4, 10] was 1.50 log10 CFU/g and 1.5 log10 CFU/g. The solubility in water [5] was “soluble in water” and the “reduction of C. albicans kidney burdens” value [6] was 6.0 ± 0.1 log10 CFU/g kidney tissue.
